From patent publication US12624354B2, “Methods and compositions for prime editing nucleotide sequences” (The Broad Institute, Inc., priority 2019, dated 2026)

Tests used:
[1] = system: 5′-Cy5-labeled dsDNA substrates; test: In vitro TPRT (prime editing) primer extension assay, denaturing urea PAGE; format: biochemical; details: non-nicked substrate, standard gRNA (gRNA_0, lane 3)
Procedure: All reactions are with M-MLV RT.
Then, the fluorescently labeled DNA substrate was added along with dNTPs and the RT enzyme. After 1 hour of incubation at 37° C., the reaction products were analyzed by denaturing urea-polyacrylamide gel electrophoresis (PAGE).
However, the DNA substrates are not pre-nicked in this set of experiments. […] The reaction products were analyzed by denaturing urea-polyacrylamide gel electrophoresis (PAGE).
Reactions were incubated at 37° C. for 1 hour, then analyzed by denaturing urea PAGE and visualized for Cy5 fluorescence.
Reactions were allowed to proceed at 37° C. for 1 hour prior to separation by denaturing urea PAGE and visualization by Cy5 fluorescence.

[2] = system: different target sites in various cell lines; test: Efficiency of prime editors with truncated RT; format: cell-based
Source text: FIG. 75 provides a bar graph comparing the efficiency (i.e., “% of total sequencing reads with the specified edit or indels”) of PE2, PE2-trunc, PE3, and PE3-trunc over different target sites in various cell lines.
See FIG. 75, which provides a bar graph comparing the efficiency (i.e., “% of total sequencing reads with the specified edit or indels”) of PE2, PE2-trunc, PE3, and PE3-trunc over different target sites in various cell lines.

[3] = system: HEK cells; test: Npu intein-split prime editors, plasmid transfection, high-throughput sequencing; format: cell-based; details: HEK cells transfected with plasmids
Source text: This Example is focused on a PE fusion protein comprising the canonical SpCas9 (SEQ ID NO: 18). The split sites for other Cas9 proteins may be the corresponding same site, or may need to be optimized for each different Cas9 protein. In the instant Example, the prime editor was split between residues 1023 and 1024 of SpCas9 (SEQ ID NO: 18). This is referred to as the “1023/1024” split site.
Prime editors (PEs) exceed the AAV packaging capacity.
It was therefore determined whether mutation from the Cas9-native “SEQ” towards the Npu intein “CFN” sequence altered efficiency of prime editing.
Although associated, unspliced editors may be active, perturbations of the sterics of the prime editor resulting from incomplete splicing during initiation steps may affect editing outcomes.

Cas9 nickase: Cas9 nickase (SpyCas9 H840A mutant)
cleavage of the DNA strand [1]: efficiently cleaves the DNA strand

PE2-trunc: Cas9 (H840A) fused to a truncated M-MLV reverse transcriptase with D200N, T306K, W313F, T330P; SEQ ID NO: 765
efficiency (% of total sequencing reads with the specified edit or indels) [2]: about as efficient as the prime editors comprising the non-truncated RT proteins

B1: 1024-CFN: intein-split PE with Cas9 residues at 1024 mutated to the Npu intein CFN sequence (protein)
chain: MKRTADGSEFESPKKKRKVIKIATRKYLGKQNVYDIGVERDHNFALKNGFIASNCFNEIGKATAKYFFYSNIMNFFKTEITLANGEIRKRPLIETNGETGEIVWDKGRDFATVRKVLSMPQVNIVKKTEVQTGGFSKESILPKRNSDKLIARKKDWDPKKYGGFDSPTVAYSVLVVAKVEKGKSKKLKSVKELLGITIMERSSFEKNPIDFLEAKGYKEVKKDLIIKLPKYSLFELENGRKRMLASAGELQKGNELALPSKYVNFLYLASHYEKLKGSPEDNEQKQLFVEQHKHYLDEIIEQISEFSKRVILADANLDKVLSAYNKHRDKPIREQAENIIHLFTLTNLGAPAAFKYFDTTIDRKRYTSTKEVLDATLIHQSITGLYETRIDLSQLGGDSGGSSGGSSGSETPGTSESATPESSGGSSGGSSTLNIEDEYRLHETSKEPDVSLGSTWLSDFPQAWAETGGMGLAVRQAPLIIPLKATSTPVSIKQYPMSQEARLGIKPHIQRLLDQGILVPCQSPWNTPLLPVKKPGTNDYRPVQDLREVNKRVEDIHPTVPNPYNLLSGLPPSHQWYTVLDLKDAFFCLRLHPTSQPLFAFEWRDPEMGISGQLTWTRLPQGFKNSPTLFNEALHRDLADFRIQHPDLILLQYVDDLLLAATSELDCQQGTRALLQTLGNLGYRASAKKAQICQKQVKYLGYLLKEGQRWLTEARKETVMGQPTPKTPRQLREFLGKAGFCRLFIPGFAEMAAPLYPLTKPGTLFNWGPDQQKAYQEIKQALLTAPALGLPDLTKPFELFVDEKQGYAKGVLTQKLGPWRRPVAYLSKKLDPVAAGWPPCLRMVAAIAVLTKDAGKLTMGQPLVILAPHAVEALVKQPPDRWLSNARMTHYQALLLDTDRVQFGPVVALNPATLLPLPEEGLQHNCLDILAEAHGTRPDLTDQPLPDADHTWYTDGSSLLQEGQRKAGAAVTTETEVIWAKALPAGTSAQRAELIALTQALKMAEGKKLNVYTDSRYAFATAHIHGEIYRRRGWLTSEGKEIKNKDEILALLKALFLPKRLSIIHCPGHQKGHSAEARGNRMADQAARKAAITETPDTSTLLIENSSPSGGSKRTADGSEFEPKKKRK
prime editing activity compared with full-length PE3 [3]: recapitulates full-length PE3 activity
